Laboratory results reported in ChEMBL document CHEMBL1159248, “Tyrosinase inhibitors from Bolivian medicinal plants” (J Nat Prod, 1995).
Active and inactive are the calls of the source. No cut-off for these calls is given here.

Key:
[1] = target: T1, Tyrosinase (Agaricus bisporus) (UniProt O42713); assay: Inhibition of mushroom tyrosinase assessed as L-3,4-dihydroxyphenylalanine oxidation
T1 sequence (whole entry): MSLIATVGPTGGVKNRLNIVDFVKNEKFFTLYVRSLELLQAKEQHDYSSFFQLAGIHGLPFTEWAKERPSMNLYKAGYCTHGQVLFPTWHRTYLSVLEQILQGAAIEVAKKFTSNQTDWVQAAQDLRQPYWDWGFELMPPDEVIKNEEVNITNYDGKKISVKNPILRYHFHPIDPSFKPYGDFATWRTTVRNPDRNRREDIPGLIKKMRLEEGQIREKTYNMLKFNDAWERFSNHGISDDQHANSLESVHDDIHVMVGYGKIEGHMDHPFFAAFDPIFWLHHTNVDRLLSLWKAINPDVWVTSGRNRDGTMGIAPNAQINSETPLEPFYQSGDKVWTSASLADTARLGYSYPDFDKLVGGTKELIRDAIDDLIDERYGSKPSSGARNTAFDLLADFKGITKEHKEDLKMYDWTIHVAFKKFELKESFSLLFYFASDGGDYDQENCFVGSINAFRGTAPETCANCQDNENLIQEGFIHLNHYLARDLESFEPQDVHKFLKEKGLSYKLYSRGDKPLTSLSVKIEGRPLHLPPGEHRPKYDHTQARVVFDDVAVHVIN

[2] = target: T1, Tyrosinase (Agaricus bisporus); assay: Inhibition of mushroom tyrosinase assessed as L-3,4-dihydroxyphenylalanine at 100 ug/ml
[3] = target: T1, Tyrosinase (Agaricus bisporus); assay: Competitive inhibition of mushroom tyrosinase assessed as L-3,4-dihydroxyphenylalanine oxidation

Compound | ID50 [1] [µM] | inhibition [2] [%] | Activity [3]
O=C(/C=C/c1ccc(O)cc1)OC[C@H]1O[C@@H](Oc2cc(O)c3c(=O)c(O)c(-c4ccc(O)cc4)oc3c2)[C@H](O)[C@@H](O)[C@@H]1O | 390 | – | –
COc1cc(/C=C/C(=O)OC[C@H]2O[C@@H](Oc3cc(O)c4c(=O)c(O)c(-c5ccc(O)cc5)oc4c3)[C@H](O)[C@@H](O)[C@@H]2O)ccc1O | 440 | – | –
O=C(O[C@H]1O[C@@H]2COC(=O)c3cc(O)c(O)c(O)c3-c3c(cc(O)c(O)c3O)C(=O)O[C@H]2[C@@H]2OC(=O)c3cc(O)c(O)c(O)c3-c3c(cc(O)c(O)c3O)C(=O)O[C@@H]12)c1cc(O)c(O)c(Oc2c(C(=O)O[C@H]3O[C@@H]4COC(=O)c5cc(O)c(O)c(O)c5-c5c(cc(O)c(O)c5O)C(=O)O[C@H]4[C@@H]4OC(=O)c5cc(O)c(O)c(O)c5-c5c(cc(O)c(O)c5O)C(=O)O[C@@H]34)cc(O)c(O)c2O)c1 | 61 | – | –
O=c1cc(-c2ccc(O[C@@H]3O[C@H](CO)[C@@H](O)[C@H](O)[C@H]3O)c(O)c2)oc2cc(O)cc(O)c12 | – | 100 | –
O=c1c(O)c(-c2ccc(O)c(O)c2)oc2cc(O)cc(O)c12 | 70 | – | Active
O=C(O)c1ccc(O)cc1 | 1900 | – | Active
